Reference: patent EP0063525A1, “Dibenzazepine tetracyclic derivatives, process for their preparation and pharmaceutical compositions containing them” (CENTRE NATIONAL DE LA RECHERCHE SCIENTIFIQUE (CNRS), priority 1981, dated 1982)
Read-outs that look alike come from different tables or passages of the source.

Tests used:
[1] = acute toxicity in the mouse, intraperitoneal; assay type: in vivo, Souris; conditions: mouse, in vivo, ip, voie intrapéritonéale; for LD50 at 48 h: souris femelles, read-out: DL 50; for mortality at 48 h: read-out: Mortalité %
Source text: (§1) Les produits ont été administrés par voie intrapéritonéale à des souris femelles dont le poids variait de 18 à 30 g.
(§2) Les animaux injectés ont été maintenus dans une salle thermostatée, nourris et abreuvés à volonté.
(§3) La mortalité a été relevée à 1 heure, 4 heures, 24 heures et 48 heures.

souris femelles = assay: acute toxicity in the mouse, intraperitoneal; assay type: in vivo; conditions: voie intrapéritonéale, dead mice of the group
Source text: as §1, §2, §3

Souris = assay: antireserpine activity: reserpine hypothermia; assay type: in vivo; conditions: réserpine 5 mg/kg i.p. 17 h before
Method: On note ensuite les températures témoins (réserpine), puis les températures 1, 2, 3 et 4 heures après l'administration des produits étudiés.
Les animaux sont répartis en lots de 4 animaux et reçoivent par voie intrapéritonéale la réserpine à une dose de 5 mg/kg. 17 heures après cette injection, on mesure la température corporelle de l'animal à l'aide d'une sonde thermocouple introduite dans le rectum; chaque lot reçoit ensuite la substance par voie intrapéritonéale. Le lot témoin reçoit la même quantité de solvant et par la même voie. La température corporelle est ensuite mesurée toutes les heures pendant 4 heures.
Les résultats sont rassemblés dans un tableau récapitulatif-où sont indiqués : • - la température moyenne pour chaque lot relevée 17 heures après l'injection de la réserpine, • - la moyenne des variations de température pour chaque lot relevées 1,2, 3 et 4 heures après l'injection de la substance étudiée, • - la somme des variations de températures pendant 4 heures, • - le pourcentage d'augmentation de la température pour chaque produit par rapport aux témoins.

[2] = ip, 4 h, product i.p. 50 mg/kg, read-out: % d'augmentation par rapport aux témoins

## OCCN1CCN(CCCN2c3ccccc3C3ON=C(c4ccccc4)C3c3ccccc32)CC1 (stereo not shown) [compound 5]
[1]
  LD50 at 48 h: 125 mg/kg
[1]; 75 mg/kg
  mortality at 48 h: 20%
[1]; 125 mg/kg
  mortality at 48 h: 40%
[1]; 200 mg/kg
  mortality at 48 h: 100%
[1]; 250 mg/kg
  mortality at 48 h: 100%
Souris femelles; 75 mg/kg
  Mortalité en 1 heure: 1
  Mortalité en 48 h.: 1
Souris femelles; 125 mg/kg
  Mortalité en 1 heure: 2
  Mortalité en 48 h.: 2
Souris femelles; 200 mg/kg
  Mortalité en 1 heure: 5
  Mortalité en 48 h.: 5
Souris femelles; 250 mg/kg
  Mortalité en 1 heure: 5
  Mortalité en 48 h.: 5

## CN(C)CCN1c2ccccc2-c2onc(-c3ccccc3)c2-c2ccccc21 [compound 17, (β-diméthylaminoéthyl)-8 phényl-3 (dibenzo [b,f]isoxazolo [4,5-d]) 8H azépine]
[1]
  LD50 at 48 h: 175 mg/kg
[1]; 50 mg/kg
  mortality at 48 h: 0%
[1]; 100 mg/kg
  mortality at 48 h: 0%
[1]; 150 mg/kg
  mortality at 48 h: 0%
[1]; 200 mg/kg
  mortality at 48 h: 100%
[1]; 250 mg/kg
  mortality at 48 h: 100%
Souris femelles; 50 mg/kg
  Mortalité en 1 heure: 0
  Mortalité en 48 h.: 0
Souris femelles; 100 mg/kg
  Mortalité en 1 heure: 0
  Mortalité en 48 h.: 0
Souris femelles; 150 mg/kg
  Mortalité en 1 heure: 0
  Mortalité en 48 h.: 0
Souris femelles; 200 mg/kg
  Mortalité en 1 heure: 5
  Mortalité en 48 h.: 5
Souris femelles; 250 mg/kg
  Mortalité en 1 heure: 4
  Mortalité en 48 h.: 5
Souris; [2]
  change in vivo at 50 mg/kg: 0%
Souris; ip, 4 h, product i.p. 150 mg/kg, read-out: % d'augmentation par rapport aux témoins
  change in vivo at 150 mg/kg: 300%

## c1ccc(-c2nn(-c3ccccc3)c3c2-c2ccccc2Nc2ccccc2-3)cc1 [compound 12, diphényl-1,3 dihydro-1,8 (dibenzo[b,f]pyrazolo[3,4-d]) azépine]
[1]
  LD50 at 48 h: > 250 mg/kg
[1]; 125 mg/kg
  mortality at 48 h: 0%
[1]; 250 mg/kg
  mortality at 48 h: 0%
Souris femelles; 125 mg/kg
  Mortalité en 1 heure: 0
  Mortalité en 48 h.: 0
Souris femelles; 250 mg/kg
  Mortalité en 1 heure: 0
  Mortalité en 48 h.: 0
Souris; [2]
  change in vivo at 50 mg/kg: 10%
Souris; product i.p. 50 mg/kg
  variation de température T= 2h: +0,4
  variation de température T=3h: +0,3
  variation de température T=4h: +0,4

## CN(C)CCCN1c2ccccc2C=Cc2ccccc21 [compound 21, (α-diméthylaminopropyl)-5 dibenzo [b,f] 5H azépine, reference compound]
[1]
  LD50 at 48 h: 100 mg/kg
[1]; 50 mg/kg
  mortality at 48 h: 0%
[1]; 75 mg/kg
  mortality at 48 h: 0%
[1]; 125 mg/kg
  mortality at 48 h: 100%
[1]; 250 mg/kg
  mortality at 48 h: 100%
Souris femelles; 50 mg/kg
  Mortalité en 1 heure: 0
  Mortalité en 48 h.: 0
Souris femelles; 75 mg/kg
  Mortalité en 1 heure: 0
  Mortalité en 48 h.: 0
Souris femelles; 125 mg/kg
  Mortalité en 1 heure: 5
  Mortalité en 48 h.: 5
Souris femelles; 250 mg/kg
  Mortalité en 1 heure: 5
  Mortalité en 48 h.: 5
Souris; [2]
  change in vivo at 50 mg/kg: 30%
Souris; product i.p. 50 mg/kg
  variation de température T= 2h: -0,1
  variation de température T=3h: +0,2
  variation de température T=4h: +0,5

## c1ccc(C2=NOC3c4ccccc4Nc4ccccc4C23)cc1 (stereo not shown) [compound 1, phényl-3 trihydro-3a,8,12b (dibenzo [b,f]isoxazolo [4,5-d])azépine]
[1]
  LD50 at 48 h: > 100 mg/kg
[1]; 50 mg/kg
  mortality at 48 h: 0%
[1]; 100 mg/kg
  mortality at 48 h: 0%
Souris femelles; 50 mg/kg
  Mortalité en 1 heure: 0
  Mortalité en 48 h.: 0
Souris femelles; 100 mg/kg
  Mortalité en 1 heure: 0
  Mortalité en 48 h.: 0
Souris; ip, 4 h, product i.p. 15 mg/kg, read-out: % d'augmentation par rapport aux témoins
  change in vivo at 15 mg/kg: 45%
Souris; product i.p. 15 mg/kg
  variation de température T= 2h: +0,5
  variation de température T=3h: +0,4
  variation de température T=4h: +0,7
